Reference: patent US10702513B2, “Methods of treating pain and inducing analgesia” (NEW YORK UNIVERSITY, priority 2012, dated 2020)
Entries after “also recorded” stand apart in the source; their conditions may differ. Read-outs that look alike come from different tables or passages of the source.

Tests used:
[1] = target: GluA2-lacking AMPA receptors (Homo sapiens, UniProt P42261); settings: cited from earlier work; for potentiation of CPARs and calcium impermeable AMPA receptors: literature (Sekiguchi 2002; Quirk 2002)
GluA2-lacking AMPA receptors, sequence (P42261 19-906): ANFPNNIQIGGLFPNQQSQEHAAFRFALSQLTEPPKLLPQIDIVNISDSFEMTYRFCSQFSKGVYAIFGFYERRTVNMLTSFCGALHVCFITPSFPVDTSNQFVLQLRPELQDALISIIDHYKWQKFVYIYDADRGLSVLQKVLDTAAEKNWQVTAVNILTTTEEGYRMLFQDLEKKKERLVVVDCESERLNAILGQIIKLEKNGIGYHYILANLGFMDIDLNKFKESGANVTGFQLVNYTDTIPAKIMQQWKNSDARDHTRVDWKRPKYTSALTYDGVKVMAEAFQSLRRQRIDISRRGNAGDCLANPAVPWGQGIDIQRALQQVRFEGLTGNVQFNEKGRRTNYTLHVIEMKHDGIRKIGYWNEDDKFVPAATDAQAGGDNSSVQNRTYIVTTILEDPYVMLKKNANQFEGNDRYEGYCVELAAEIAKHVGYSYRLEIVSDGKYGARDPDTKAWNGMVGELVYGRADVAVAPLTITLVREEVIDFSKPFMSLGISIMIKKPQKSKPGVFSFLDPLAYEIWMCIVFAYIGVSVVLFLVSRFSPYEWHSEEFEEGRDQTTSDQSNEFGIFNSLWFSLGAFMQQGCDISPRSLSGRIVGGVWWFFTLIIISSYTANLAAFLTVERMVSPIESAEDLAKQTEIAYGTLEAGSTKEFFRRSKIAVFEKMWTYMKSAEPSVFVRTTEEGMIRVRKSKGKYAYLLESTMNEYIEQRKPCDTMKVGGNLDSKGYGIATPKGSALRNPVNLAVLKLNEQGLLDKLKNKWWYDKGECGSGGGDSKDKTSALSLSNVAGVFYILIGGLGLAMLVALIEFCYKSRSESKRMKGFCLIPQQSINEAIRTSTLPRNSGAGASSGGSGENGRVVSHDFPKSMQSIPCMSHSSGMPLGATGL

[2] = cited from earlier work; for antidepressant effects: literature (Sekiguchi 2002; Quirk 2002); for antidepressant effect on pain-induced depression: SNI model, Wang et al. 2011
[3] = test system: SNI-treated rats; assay: Forced swim test, SNI model; assay type: in vivo, rat; settings: 10 mg/kg intraperitoneal, vs DMSO
Description: (§1) The Spared Nerve Injury (SNI) surgery was previously described in detail (Wang et al. Anesthesiology 2011, 115: 812-821). Briefly, under Isoflurane anesthesia (1.5 to 2%), the skin on the lateral surface of the right thigh of rat was incised and a section made through the biceps femoris muscle to expose three branches of the sciatic nerve: sural, common peroneal and tibial nerves. The common peroneal and tibial nerves were tied with non-absorbent 5.0 silk sutures at the point of trifurcation. The nerves were then cut distal to the knot, and about 3 to 5 mm of the distal ends were removed. Muscle layer was then sutured close, while skin was stapled. Staples were removed prior to behavioral testing.
On the first session of the test, each animal was placed for fifteen minutes into a standard clear Porsolt chamber with water at 25° C. filled to 25 cm. Afterwards, the animal was taken out of the chamber, dried and put back in its home cage. 24 hours later, the animal was placed into the Porsolt chamber again under the same conditions for 5 min. Both sessions were videotaped, but only the second session was analyzed. Immobility was defined as a lack of movement of the hind paws lasting greater than 1 second. Two independent observers, examined and graded the total time of immobility for each rat, and the average grade was presented for each animal. FST was conducted 14 days after surgeries. […]

[4] = test system: SNI-treated rats; assay: Cold hypersensitivity / allodynia (acetone), SNI model; assay type: in vivo, rat
Description: as §1, with “Briefly,” for “The Spared Nerve Injury (SNI) surgery was previously described in detail (Wang et al. Anesthesiology 2011, 115: 812-821). Briefly,”
Animals were individually placed into plexiglass chambers as above and acclimated for 20 min. A drop of acetone was applied to the lateral plantar surface of the paws (in the distribution of the sural nerve). […] 0: no visible response or startle response lasting <0.5 second; 1: paw withdrawal lasting <5 seconds; 2: withdrawal lasting 5 to 10 seconds, +/− licking of the paws; 3: prolonged repetitive withdrawal lasting >10 s. Acetone was applied 5 times to each paw, and an average score was calculated.

[5] = test system: SNI-treated rats; assay: Mechanical hypersensitivity / allodynia (von Frey filaments), SNI model; assay type: in vivo, rat; settings: for mechanical allodynia: 30 minutes after drug; for sensory hypersensitivity: administered directly into the NAc
Description: (§2) To block CPARs locally in the NAc, microcannulas were stereotactically implanted bilaterally into the NAc, a technique well established (Carr, et al., Neuroscience 2010; 165: 1074-86). The NAc has anatomically distinct core and shell regions, both of which are involved in mood regulation. […] Sensory hypersensitivity was measured using von Frey filaments (Wang, et al. Anesthesiology 2011; 115: 812-821), whereas locomotion tests were performed using standard protocols (Carr, et al., Pschopharmacology (Berl) 2009; 201: 495-506).
as §1
A traditional Dixon up-down method with von Frey filaments was used to measure mechanical allodynia (Wang et al. Anesthesiology 2011, 115: 812-821). In brief, rats were individually placed into plexiglass chambers over a mesh table and acclimated for 20 min before the onset of examination. Beginning with 2.55 g, von Frey filaments in a set with logarithmically incremental stiffness (0.45, 0.75, 1.20, 2.55, 4.40, 6.10, 10.50, 15.10 g) were applied to the lateral ⅓ of right paws (in the distribution of the sural nerve) of animals at least 14 days after SNI surgery, and observers were blinded to the test conditions (CX546 vs. DMSO treatments).

[6] = test system: SNI-treated rats; assay: Sucrose preference test (depression-like behavior) after intra-NAc administration, SNI model; assay type: in vivo, rat
Description: After SNI, rats develop sensory hypersensitivity, as measured by increased withdrawal response to von Frey filaments (mechanical allodynia) and acetone (cold allodynia) (FIG. 5) (Wang, et al. Anesthesiology 2011; 115: 812-821). The sucrose preference test (SPT) and forced swim test (FST) are used to assess depression. Preference for sucrose over water is a normal hedonic response in rats, whereas a decreased sucrose preference on the SPT represents anhedonia, a typical feature of depression. […] Sham-operated rats only develop depression-like behavior in the immediate postoperative period (FIG. 6C), due to acute incisional pain. These experiments were repeated in the PI model, and sensory and depressive symptoms both develop within 24 hours after paw incision and resolve 7 days later (FIG. 7). Thus, in animal models both acute and chronic postoperative pain cause depressive behavior.
as §2

[7] = test system: GluA1; settings: Li et al. 2010; cited from earlier work
[8] = test system: SNI-treated rats; settings: Wang et al. 2011; cited from earlier work
[9] = 10 mg/kg intraperitoneal, SNI rats, vs DMSO
[10] = administered directly into the NAc, SNI-treated rats, vs saline
[11] = injected into NAc core, SNI-treated rats

In the case of `NC(=O)COc1c(F)cc(SCCNS(=O)(=O)c2ccccc2)cc1F` [PEPA, 4-[2-(phenylsulfonylamino)ethylthio]-2,6-difluorophenoxyacetamide], the “potentiation of CPARs and calcium impermeable AMPA receptors” value [1] is listed as “potentiate both CPARs and calcium impermeable AMPA receptors” and the antidepressant effects [2] is listed as “antidepressant effects”.

In the case of `O=C(c1ccc2c(c1)OCCO2)N1CCCCC1` [CX546], the “immobility on the forced swim test” value [3] was “significantly decreases immobility; also recorded: improves performance on the forced swim test”, the cold allodynia [4, 9] was “relieves cold allodynia” and the analgesic effect ([5]; 2.5 mg/kg, SNI rats, vs DMSO) was “does not produce any statistically significant analgesic effect”. The mechanical allodynia ([5]; 5 mg/kg intraperitoneal, SNI rats, vs DMSO) was “successfully relieves mechanical allodynia; also recorded: relieve mechanical allodynia” and the mechanical allodynia [5, 9] was “successfully relieves mechanical allodynia; also recorded: relieve mechanical allodynia”.

For `O=C1CCCN1` [2-pyrrolidinone], the “currents of GluA2-lacking AMPA receptors (CPAR currents)” value ([1]; in vitro, Nishizaki et al. 2002) is given as “specifically increase CPAR currents; also recorded: specifically increase the currents of GluA2-lacking AMPA receptors”, the sensory hypersensitivity ([5]; SNI-treated rats) is given as “did not have any effect; also recorded: unaltered” and the “sucrose preference (depression-like behavior)” value [6, 10] is given as “increased sucrose; also recorded: return of sucrose preference to near control (painless) levels”.

For `CC(C)S(=O)(=O)NC[C@H](C)c1ccc(-c2ccc(C#N)cc2)cc1` [LY451646], the “potentiation of CPARs and calcium impermeable AMPA receptors” value [1] is given as “potentiate both CPARs and calcium impermeable AMPA receptors” and the antidepressant effects [2] is given as “antidepressant effects”.

With `NCCCNCCCCNCCCNC(=O)Cc1cccc2ccccc12` [NASPM, 1-naphthyl acetyl spermine] the cold hypersensitivity [4, 11] was “did not alter”, the sensory hypersensitivity ([5]; SNI-treated rats) was “does not alter” and the mechanical hypersensitivity [5, 11] was “does not change mechanical hypersensitivity; also recorded: did not alter; also recorded: no effects on mechanical hypersensitivity”. The “sucrose preference (depression-like behavior)” value [6, 10] was “decrease in sucrose preference; also recorded: enhance depression-like behavior; also recorded: significant further decline in their already reduced sucrose preference; also recorded: reduces sucrose preference”, the “average difference in sucrose preference between NASPM and saline treatment” value ([6]; based on preliminary data, used for power analysis, STD 0.15) was 0.2 and the “sucrose preference (depression-like behavior)” value ([6]; injected into NAc core, sham-treated rats) was “did not show this depression-like behavioral response”.

In the case of `CNC1(c2ccccc2Cl)CCCCC1=O` (stereo not shown) [ketamine], the GluA1 levels [7] is listed as “increase GluA1 levels”, the sensory pain relief [8] is listed as “without exerting long lasting sensory pain relief” and the “antidepressant effect on pain-induced depression” value [2] is listed as “antidepressant properties in the SNI model”. The “antidepressant effect on pain-induced depression” value ([2]; listed as Ketamine) was “effectively treat pain-induced depression”.
